Results as given in PubChem BioAssay (NCI).
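Method: 48-hour compound exposure of cells in 96-well plates, five concentrations, linear interpolation of endpoints. TGI denotes the concentration required for complete inhibition of growth.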

Assays:
Assay in all cases: DTP human tumour cell line panel, 48 h
HOP-92 NSCLC = tested on: HOP-92 NSCLC
NCI-H460 lung = tested on: NCI-H460 lung
SN12C renal = tested on: SN12C renal
HCC-2998 colon = tested on: HCC-2998 colon
EKVX NSCLC = tested on: EKVX NSCLC
RPMI-8226 leukemia = tested on: RPMI-8226 leukemia
RXF 393 renal = tested on: RXF 393 renal
NCI-H23 lung = tested on: NCI-H23 lung
MDA-MB-435 = tested on: MDA-MB-435
DU-145 prostate = tested on: DU-145 prostate
SNB-75 CNS = tested on: SNB-75 CNS
HOP-62 NSCLC = tested on: HOP-62 NSCLC
CCRF-CEM leukemia = tested on: CCRF-CEM leukemia
K-562 leukemia = tested on: K-562 leukemia
MOLT-4 leukemia = tested on: MOLT-4 leukemia
PC-3 prostate = tested on: PC-3 prostate
SK-MEL-2 melanoma = tested on: SK-MEL-2 melanoma
ACHN renal = tested on: ACHN renal
LOX IMVI melanoma = tested on: LOX IMVI melanoma
COLO 205 colon = tested on: COLO 205 colon
IGROV1 ovarian = tested on: IGROV1 ovarian
SK-MEL-5 melanoma = tested on: SK-MEL-5 melanoma
MDA-N = tested on: MDA-N
A498 renal = tested on: A498 renal
M14 melanoma = tested on: M14 melanoma
NCI-H522 lung = tested on: NCI-H522 lung
U251 CNS = tested on: U251 CNS
HCT-15 colon = tested on: HCT-15 colon
HT29 colon = tested on: HT29 colon
MALME-3M melanoma = tested on: MALME-3M melanoma
786-0 renal = tested on: 786-0 renal
OVCAR-8 ovarian = tested on: OVCAR-8 ovarian
UACC-257 melanoma = tested on: UACC-257 melanoma
NCI-H226 lung = tested on: NCI-H226 lung
T-47D breast = tested on: T-47D breast
HS 578T breast = tested on: HS 578T breast
OVCAR-4 ovarian = tested on: OVCAR-4 ovarian
CAKI-1 renal = tested on: CAKI-1 renal
UACC-62 melanoma = tested on: UACC-62 melanoma
OVCAR-5 ovarian = tested on: OVCAR-5 ovarian
NCI/ADR-RES ovarian = tested on: NCI/ADR-RES ovarian
SK-MEL-28 melanoma = tested on: SK-MEL-28 melanoma
SF-268 CNS = tested on: SF-268 CNS
SR leukemia = tested on: SR leukemia
MDA-MB-231 breast = tested on: MDA-MB-231 breast
KM12 colon = tested on: KM12 colon
HCT-116 colon = tested on: HCT-116 colon
SF-539 CNS = tested on: SF-539 CNS
SK-OV-3 ovarian = tested on: SK-OV-3 ovarian
SF-295 CNS = tested on: SF-295 CNS
A549 NSCLC = tested on: A549 NSCLC
OVCAR-3 ovarian = tested on: OVCAR-3 ovarian
SW-620 colon = tested on: SW-620 colon
HL-60(TB) leukemia = tested on: HL-60(TB) leukemia
SNB-19 CNS = tested on: SNB-19 CNS
MCF7 breast = tested on: MCF7 breast
UO-31 renal = tested on: UO-31 renal
TK-10 renal = tested on: TK-10 renal
BT-549 breast = tested on: BT-549 breast

O=C1OCC2=C1C(c1ccc3c(c1)OCO3)c1cc3c(cc1O2)OCO3 (centres undefined)
TGI (HOP-92 NSCLC): > 100 µM | TGI (NCI-H460 lung): > 100 µM | TGI (SN12C renal): > 100 µM | TGI (HCC-2998 colon): 59.3 µM | TGI (EKVX NSCLC): > 100 µM | TGI (RPMI-8226 leukemia): 10.5 µM | TGI (RXF 393 renal): 7.6 µM | TGI (NCI-H23 lung): > 100 µM | TGI (MDA-MB-435): 0.323 µM | TGI (DU-145 prostate): > 58.8 µM | TGI (SNB-75 CNS): 11.9 µM | TGI (HOP-62 NSCLC): > 100 µM | TGI (CCRF-CEM leukemia): > 30.7 µM | TGI (K-562 leukemia): 28.8 µM | TGI (MOLT-4 leukemia): > 49.1 µM | TGI (PC-3 prostate): > 63.7 µM | TGI (SK-MEL-2 melanoma): > 100 µM | TGI (ACHN renal): > 100 µM | TGI (LOX IMVI melanoma): > 100 µM | TGI (COLO 205 colon): 15.2 µM | TGI (IGROV1 ovarian): > 100 µM | TGI (SK-MEL-5 melanoma): > 100 µM | TGI (MDA-N): 0.368 µM | TGI (A498 renal): 42.8 µM | TGI (M14 melanoma): 11.4 µM | TGI (NCI-H522 lung): 0.533 µM | TGI (U251 CNS): > 100 µM | TGI (HCT-15 colon): > 79.1 µM | TGI (HT29 colon): 3.54 µM | TGI (MALME-3M melanoma): > 100 µM | TGI (786-0 renal): > 30.1 µM | TGI (OVCAR-8 ovarian): 68.1 µM | TGI (UACC-257 melanoma): > 100 µM | TGI (NCI-H226 lung): > 100 µM | TGI (T-47D breast): > 100 µM | TGI (HS 578T breast): 20.8 µM | TGI (OVCAR-4 ovarian): > 100 µM | TGI (CAKI-1 renal): > 100 µM | TGI (UACC-62 melanoma): > 72.6 µM | TGI (OVCAR-5 ovarian): > 100 µM | TGI (NCI/ADR-RES ovarian): 2.03 µM | TGI (SK-MEL-28 melanoma): > 59.1 µM | TGI (SF-268 CNS): > 100 µM | TGI (SR leukemia): 5.19 µM | TGI (MDA-MB-231 breast): > 100 µM | TGI (KM12 colon): > 100 µM | TGI (HCT-116 colon): 41.5 µM | TGI (SF-539 CNS): 2.81 µM | TGI (SK-OV-3 ovarian): > 85.2 µM | TGI (SF-295 CNS): > 72.2 µM | TGI (A549 NSCLC): > 100 µM | TGI (OVCAR-3 ovarian): > 21.3 µM | TGI (SW-620 colon): > 100 µM | TGI (HL-60(TB) leukemia): 0.365 µM | TGI (SNB-19 CNS): > 27.2 µM | TGI (MCF7 breast): > 100 µM | TGI (UO-31 renal): > 85.6 µM | TGI (TK-10 renal): > 100 µM

O=C1Nc2c(Cl)cc(Cl)cc2C1=O
TGI (HOP-92 NSCLC): 57.5 µM | TGI (NCI-H460 lung): 47.6 µM | TGI (SN12C renal): 32.2 µM | TGI (HCC-2998 colon): 83.4 µM | TGI (EKVX NSCLC): 29.6 µM | TGI (RXF 393 renal): 28.2 µM | TGI (NCI-H23 lung): 48.7 µM | TGI (MDA-MB-435): 15.2 µM | TGI (SNB-75 CNS): 28.6 µM | TGI (HOP-62 NSCLC): 40.4 µM | TGI (CCRF-CEM leukemia): 72.9 µM | TGI (K-562 leukemia): > 100 µM | TGI (MOLT-4 leukemia): 48.6 µM | TGI (PC-3 prostate): > 100 µM | TGI (SK-MEL-2 melanoma): 29.7 µM | TGI (ACHN renal): > 100 µM | TGI (LOX IMVI melanoma): 35.5 µM | TGI (BT-549 breast): 35.1 µM | TGI (COLO 205 colon): 50.8 µM | TGI (IGROV1 ovarian): 50.3 µM | TGI (SK-MEL-5 melanoma): 28.8 µM | TGI (MDA-N): 21.8 µM | TGI (A498 renal): 53.4 µM | TGI (M14 melanoma): 38.6 µM | TGI (U251 CNS): 55.2 µM | TGI (HCT-15 colon): 47.5 µM | TGI (HT29 colon): > 100 µM | TGI (MALME-3M melanoma): 7.88 µM | TGI (786-0 renal): 39.5 µM | TGI (OVCAR-8 ovarian): 55.8 µM | TGI (UACC-257 melanoma): 35.1 µM | TGI (NCI-H226 lung): 46.6 µM | TGI (HS 578T breast): 37.6 µM | TGI (OVCAR-4 ovarian): 33.1 µM | TGI (CAKI-1 renal): 35.4 µM | TGI (UACC-62 melanoma): 30.2 µM | TGI (OVCAR-5 ovarian): 40.7 µM | TGI (NCI/ADR-RES ovarian): 54.5 µM | TGI (SK-MEL-28 melanoma): 35.4 µM | TGI (SR leukemia): 39.4 µM | TGI (MDA-MB-231 breast): 45.9 µM | TGI (KM12 colon): > 100 µM | TGI (HCT-116 colon): 40.5 µM | TGI (SF-539 CNS): 34.4 µM | TGI (SK-OV-3 ovarian): > 100 µM | TGI (SF-295 CNS): 31.8 µM | TGI (A549 NSCLC): 35.9 µM | TGI (OVCAR-3 ovarian): 52.5 µM | TGI (SW-620 colon): 41.5 µM | TGI (HL-60(TB) leukemia): 26.7 µM | TGI (SNB-19 CNS): > 100 µM | TGI (MCF7 breast): 39.6 µM | TGI (UO-31 renal): 44.9 µM | TGI (TK-10 renal): > 100 µM

O=C(NC(O)(C(F)(F)F)C(F)(F)F)c1ccccc1
TGI (HOP-92 NSCLC): > 100 µM | TGI (NCI-H460 lung): > 100 µM | TGI (SN12C renal): > 100 µM | TGI (HCC-2998 colon): > 100 µM | TGI (EKVX NSCLC): > 100 µM | TGI (RPMI-8226 leukemia): > 100 µM | TGI (RXF 393 renal): > 100 µM | TGI (NCI-H23 lung): > 100 µM | TGI (MDA-MB-435): > 100 µM | TGI (DU-145 prostate): > 100 µM | TGI (SNB-75 CNS): > 100 µM | TGI (HOP-62 NSCLC): > 100 µM | TGI (CCRF-CEM leukemia): > 100 µM | TGI (K-562 leukemia): > 100 µM | TGI (MOLT-4 leukemia): > 100 µM | TGI (PC-3 prostate): > 100 µM | TGI (SK-MEL-2 melanoma): > 100 µM | TGI (ACHN renal): > 100 µM | TGI (LOX IMVI melanoma): > 100 µM | TGI (COLO 205 colon): > 100 µM | TGI (IGROV1 ovarian): > 100 µM | TGI (SK-MEL-5 melanoma): > 100 µM | TGI (MDA-N): > 100 µM | TGI (A498 renal): > 100 µM | TGI (M14 melanoma): > 100 µM | TGI (NCI-H522 lung): > 100 µM | TGI (U251 CNS): > 100 µM | TGI (HCT-15 colon): > 100 µM | TGI (HT29 colon): > 100 µM | TGI (MALME-3M melanoma): > 100 µM | TGI (786-0 renal): > 100 µM | TGI (OVCAR-8 ovarian): > 100 µM | TGI (UACC-257 melanoma): > 100 µM | TGI (NCI-H226 lung): > 100 µM | TGI (T-47D breast): > 100 µM | TGI (HS 578T breast): > 100 µM | TGI (OVCAR-4 ovarian): > 100 µM | TGI (CAKI-1 renal): > 100 µM | TGI (OVCAR-5 ovarian): > 100 µM | TGI (NCI/ADR-RES ovarian): > 100 µM | TGI (SK-MEL-28 melanoma): > 100 µM | TGI (SF-268 CNS): > 100 µM | TGI (SR leukemia): > 100 µM | TGI (MDA-MB-231 breast): > 100 µM | TGI (KM12 colon): > 100 µM | TGI (HCT-116 colon): > 100 µM | TGI (SF-539 CNS): > 100 µM | TGI (SK-OV-3 ovarian): > 100 µM | TGI (SF-295 CNS): > 100 µM | TGI (A549 NSCLC): > 100 µM | TGI (OVCAR-3 ovarian): > 100 µM | TGI (SW-620 colon): > 100 µM | TGI (HL-60(TB) leukemia): > 100 µM | TGI (SNB-19 CNS): > 100 µM | TGI (MCF7 breast): > 100 µM | TGI (UO-31 renal): > 100 µM | TGI (TK-10 renal): > 100 µM
